Tests used:
[1] = tested on: IL 1-induced release of neutral protease from rabbit articular chondrocytes; experiment: inhibition of IL 1-induced release of neutral protease from rabbit articular chondrocytes (azocoll neutral protease assay); format: cell-based; conditions: Oryctolagus cuniculus, Chondrocyte, human IL 1, 24 h, ± S.D., read-out: % Inhibition of Protease Secretion
Description: The ability of the compounds of the inventions to inhibit interleukin 1 is measured by the ability of the test compounds to inhibit the IL 1-induced release of neutral protease from rabbit articular chondrocytes.
This assay is carried out as follows:
Isolation of rabbit chondrocytes:
Male New Zealand White rabbits are anesthetized with 50 mg/kg of ketamine (i.m.) and killed by an intracardiac injection of 3 mls. of Nembutal. The knee joints of both legs are resected and the articular surfaces are exposed. Cartilage slices are obtained using a scalpel and are placed in a tissue culture dish (100 mm diameter) containing 10 mls of Hank's balanced salt solution (HBSS). The chondrocytes within the cartilage slices are then liberated by a series of enzyme digestions. The slices are incubated for 10 min. at 37° C. in 0.05% hyaluronidase (Sigma H-3884), rinsed with HBSS and incubated with 0.2% trypsin (Sigma T-2395) for 10 min. at 37° C. The slices are rinsed again and incubated for 10 mins. at 37° C. with 1.2% collagenase (Sigma C-5138). The slices are then rinsed again with HBSS and resuspended in 10 ml of Ham's F-12 medium containing 10% fetal bovine calf serum (FCS) and 0.2 % collagenase and incubated overnight at 37° C. in a 5% CO2 incubator. The next day, the medium containing the digested cartilage fragments and liberated chondrocytes is transferred to a 15 ml centrifuge tube and the cells are collected by centrifugation and washed twice and resuspended in Ham's F-12 medium. The cells are then plated into 24-well tissue culture plates (2×10^5 cells/well) and incubated at 37° C. until confluent (usually 4-6 days).
Stimulation of chondrocytes and drug treatment:
The confluent chondrocytes are rinsed twice with serum-free Ham's F-12 medium and 1 ml is added to each well. Fifty μl of purified human IL 1 (100 Units/ml; Genzyme Corporation, Boston, MA) is then added to stimulate these cells to secrete neutral protease. To measure drug effects, the cells are treated with test compound 10 min. prior to addition of IL 1. The standard screening dose is 10 μM. Twenty-four hours after IL 1 stimulation, supernatant fluids are collected and assayed for neutral protease activity.
The neutral protease activity of chondrocyte supernatant fluids is determined by their ability to degrade an insoluble protease substrate, azocoll (Sigma). Supernatants are treated for 10 min. at room temperature with 350 μM p-aminophenylmurcuric acetate to activate the latent enzyme. Three hundred μl of supernatant is then mixed with 500 μl of a 20 mg/ml suspension of azocoll and incubated at 37° C. for 18-24 hrs. with gentle rocking. The mixtures are centrifuged and the amount of substrate hydrolyzed is determined by measuring the absorbance of the supernatant at 520 nm.
Drug effects are calculated as the % change in enzyme activity (absorbance)by supernatants from drug-treated chondrocytes relative to enzyme activity of supernatants from vehicle-treated chondrocytes as follows:
% Inhibition of Protease Secretion= [formula]

[2] = tested on: rat carrageenan paw edema; experiment: rat carrageenan paw edema assay; format: in vivo, rat (male Sprague-Dawley); conditions: for ED50: Rattus norvegicus, po, 3 h, read-out: Oral ED50 (95% C.L.); for % Inhibition of edema at 50 mg/kg (peroral): 1 hour prior to carrageenan, edema at 3 hours
Description: The compounds of the invention are tested in the rat carrageenan paw edema assay to determine their ability to inhibit the acute inflammatory response. This assay is carried out as follows: 140-180 gm male Sprague-Dawley rats, in groups of 6 animals, are injected subcutaneously in the right paw with 0.1 ml of 1% carrageenan at zero time. Mercury plethysmographic readings (ml) of the paw are made at zero time and 3 hours later. Test compounds are suspended or dissolved in 0.5% methylcellulose and given perorally 1 hour prior to carrageenan administration. The increase in paw volume (edema in ml.) produced by the carrageenan is measured. […] Unpaired Student's t-test is used to determine statistical significance.

Compound	inhibition at 10 µM [1]	also measured
CS(=O)(=O)c1ccc(NCCc2nc3cc(Cl)ccc3c3nn(-c4ccccc4)cc23)cc1 [Example 12, 7-Chloro-N-[(4-methylsulfonyl)phenyl]-2-phenyl-2H-pyrazolo[4,3-c]quinoline-4-ethanamine]	41%	–
CCOC(=O)c1ccc(N(CCc2nc3cc(Cl)ccc3c3nn(-c4ccccc4)cc23)C(=O)Nc2ccccc2)cc1 [Example 9]	49%	–
Fc1ccc(NCCc2nc3cc(Cl)ccc3c3nn(-c4ccccc4)cc23)cc1 [Example 5, 7-Chloro-N-(4-fluorophenyl)-2-phenyl-2H-pyrazolo[4,3-c]quinoline-4-ethanamine]	14%	–
CCOC(=O)c1ccc(NCCc2nc3ccccc3c3nn(-c4ccccc4)cc23)cc1 [Example 7, 4-[[2-(2-phenyl-2H-pyrazolo[4,3-c]quinolin-4-yl)ethyl]amino]benzoic acid ethyl ester]	83%	–
N#Cc1ccc(N(CCc2nc3cc(Cl)ccc3c3nn(-c4ccccc4)cc23)C(=O)Nc2ccc(Cl)cc2)cc1 [Example 10, N'-(4-Chlorophenyl)-N-[2-(7-chloro-2-phenyl-2H-pyrazolo[4,3-c]quinolin-4-yl)ethyl]-N-(4-cyanophenyl)urea]	51%	–
COc1ccc2c(c1)c(CC(=O)O)c(C)n2C(=O)c1ccc(Cl)cc1 [Indomethacin, reference compound]	–	ED50 [2]: 3.7 mg/kg
Clc1ccc2c(c1)nc(CCNc1cnccn1)c1cn(-c3ccccc3)nc12 [Example 6, 7-Chloro-2-phenyl-N-(2-pyrazinyl)-2H-pyrazolo-[4,3-c]quinoline-4-ethanamine, hemihydrate]	60%	–
CCOC(=O)c1ccc(N(CCc2nc3cc(Cl)ccc3c3nn(-c4ccccc4)cc23)C(=O)Nc2ccc(Cl)cc2)cc1 [Example 11, 4-[[[(4-chlorophenyl)amino]carbonyl][2-(7-chloro-2-phenyl-2H-pyrazolo[4,3-c]quinolin-4-yl)ethyl]amino]benzoic acid ethyl ester, hydrate]	47%	–
CC(=O)Oc1ccccc1C(=O)O [Aspirin, reference compound]	–	ED50 [2]: 145 mg/kg
CCOC(=O)c1ccc(NCCc2nc3cc(Cl)ccc3c3nn(-c4ccccc4)cc23)cc1 [Example 2, 4-[[2-(7-Chloro-2-phenyl-2H-pyrazolo[4,3-c]quinolin-4-yl)ethyl]amino]benzoic acid ethyl ester]	85 ± 3%	% Inhibition of edema at 50 mg/kg (peroral) [2]: 32%; inhibition at 0.1 µM [1]: 41 ± 10%; inhibition at 1 µM [1]: 70 ± 4%
N#Cc1ccc(N(CCc2nc3cc(Cl)ccc3c3nn(-c4ccccc4)cc23)C(=O)Nc2ccccc2)cc1 [Example 8, N-[2-(7-chloro-2-phenyl-2H-pyrazolo[4,3-c]quinolin-4-yl)ethyl]-N-(4-cyanophenyl)-N'-phenylurea]	≤ 20%	–
Clc1ccc2c(c1)nc(CCNc1ccc3ccccc3n1)c1cn(-c3ccccc3)nc12 [Example 4, 7-Chloro-2-phenyl-N-(2-quinolinyl)-2H-pyrazolo[4,3-c]quinoline-4-ethanamine]	≤ 20%	–
Clc1ccc2c(c1)nc(CCNc1ncccn1)c1cn(-c3ccccc3)nc12 [Example 3, 7-Chloro-2-phenyl-N-(2-pyrimidinyl)-2H-pyrazolo[4,3-c]quinoline-4-ethanamine]	79 ± 29%	inhibition at 1 µM [1]: 22%
N#Cc1ccc(NCCc2nc3cc(Cl)ccc3c3nn(-c4ccccc4)cc23)cc1 [Example 1, 4-[[2-(7-Chloro-2-phenyl-2H-pyrazolo-[4,3-c]quinolin-4-yl)ethyl]amino]benzonitrile]	88 ± 2%	% Inhibition of edema at 50 mg/kg (peroral) [2]: 38%; inhibition at 0.1 µM [1]: 60 ± 13%; inhibition at 1 µM [1]: 75 ± 5%

From US4748246A, “Pyrazolo(4,3-c)quinolines” (American Home Products Corporation, priority 1987, dated 1988)
